Among the data in patent US20080039482A1, “SULFONAMIDO-MACROCYCLES AS TIE2 INHIBITORS AND SALTS THEREOF, PHARMACEUTICAL COMPOSITIONS COMPRISING SAME, METHODS OF PREPARING SAME AND USES OF SAME” (priority 2006, published 2008) are IC50 values, retold here.

Experiment [1] deals with T1, Tie2 (Homo sapiens, UniProt Q02763). Briefly: Tie-2-Kinase HTRF-Assay without kinase preactivation (assay 2). The class given is biochemical. On the set-up: fusion protein of GST and the intracellular domains of Tie-2; GST; made in house; host or cells: insect cells (Hi-5). The settings on record: 10 μM ATP, pIC50 = -log IC50 in molar concentration. From the text: Tie2-inhibitory activity of compounds of the present invention was quantified employing two Tie2 HTRF assay as described in the following paragraphs.
A recombinant fusion protein of GST and the intracellular domains of Tie-2, expressed in insect cells (Hi-5) and purified by Glutathion-Sepharose affinity chromatography was used as kinase. Alternatively, commercially available GST-Tie2-fusion protein (Upstate Biotechnology, Dundee, Scotland) can be used As substrate for the kinase reaction the biotinylated peptide biotin-Ahx-EPKDDAYPLYSDFG (C-terminus in amid form) was used which can be purchased e.g. from the company Biosynthan GmbH (Berlin-Buch, Germany). Detection of phosphorylated product is achieved specifically by a trimeric detection complex consisting of the phosphorylated substrate, streptavidin-XLent (SA-XLent) which binds to biotin, and Europium Cryptate-labeled anti-phosphotyrosine antibody PT66 which binds to phosphorylated tyrosine.
Tie-2 (3.5 ng/measurement point) was incubated for 60 min at 22° C. in the presence of 10 μM adenosine-tri-phosphate (ATP) and 1 μM substrate peptide (biotin-Ahx-EPKDDAYPLYSDFG-NH2) with different concentrations of test compounds (0 μM and concentrations in the range 0.001-20 μM) in 5 μl assay buffer [50 mM Hepes/NaOH pH 7, 10 mM MgCl2, 0.5 mM MnCl2, 1.0 mM dithiothreitol, 0.01% NP40, protease inhibitor mixture (“Complete w/o EDTA” from Roche, 1 tablet per 2.5 ml), 1% (v/v) dimethylsulfoxide]. The reaction was stopped by the addition of 5 μl of an aqueous buffer (25 mM Hepes/NaOH pH 7.5, 0.28% (w/v) bovine serum albumin) containing EDTA (90 mM) and the HTRF (Homogeneous Time Resolved Fluorescence) detection reagents streptavidine-XLent (0.2 μM, from Cis Biointernational, Marcoule, France) and PT66-Eu-Chelate (0.3 ng/μl; a europium-chelate labelled anti-phospho-tyrosine antibody from Perkin Elmer).
The resulting mixture was incubated 1 h at 22° C. to allow the binding of the biotinylated phosphorylated peptide to the streptavidine-XLent and the PT66-Eu-Chelate. Subsequently the amount of phosphorylated substrate peptide was evaluated by measurement of the resonance energy transfer from the PT66-Eu-Chelate to the streptavidine-XLent. Therefore, the fluorescence emissions at 620 nm and 665 nm after excitation at 350 nm was measured in a HTRF reader, e.g. a Rubystar (BMG Labtechnologies, Offenburg, Germany) or a Viewlux (Perkin-Elmer). The ratio of the emissions at 665 nm and at […] was taken as the measure for the amount of phosphorylated substrate peptide. The data were normalised (enzyme reaction without inhibitor=0% inhibition, all other assay components but no enzyme=100% inhibition) and IC50 values were calculated by a 4 parameter fit using an inhouse software.
A general note: Time-resolved FRET reads energy transfer from a long-lived donor to a nearby acceptor.
Target sequence in this assay (Q02763 770-1124 limits assumed, species assumed): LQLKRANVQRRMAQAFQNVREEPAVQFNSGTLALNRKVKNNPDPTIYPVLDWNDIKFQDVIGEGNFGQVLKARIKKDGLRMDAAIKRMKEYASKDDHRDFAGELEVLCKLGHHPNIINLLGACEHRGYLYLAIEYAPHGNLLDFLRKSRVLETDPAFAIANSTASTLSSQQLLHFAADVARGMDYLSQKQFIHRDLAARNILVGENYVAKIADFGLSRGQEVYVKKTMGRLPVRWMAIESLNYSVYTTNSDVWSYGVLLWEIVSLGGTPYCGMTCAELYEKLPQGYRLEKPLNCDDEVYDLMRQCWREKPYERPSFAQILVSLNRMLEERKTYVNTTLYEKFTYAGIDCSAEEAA

Experiment [2] has as its target T1, Tie2. In words: Tie2 ELISA assay (assay 1): Ang2-stimulated Tie2 autophosphorylation in transfected CHO cells. The format is cell-based. On the set-up: expressed in transfected cells; host or cells: CHO (DHFR selection). The settings on record: CHO Tie2/DHFR cells stimulated by angiopoietin-2, pIC50 = -log IC50 in molar concentration, read-out: Tie 2 activity (assay 1). The procedure: Cellular activity of compounds of the present invention as inhibitors of Tie2 kinase activity was measured employing a Tie2 ELISA assay as described in the following paragraphs. Herein CHO cell-cultures, which are stably transfected by known techniques with Tie2 using DHFR deficiency as selection marker, are stimulated by angiopoietin-2. The specific autophosphorylation of Tie2 receptors is quantified with a sandwich-ELISA using anti-Tie2 antibodies for catch and anti-phosphotyrosine antibodies coupled to HRP for detection.
• 96 well tissue culture plate, sterile, Greiner • 96 well FluoroNunc plate MaxiSorp Surface C, Nunc • 96 well plate polypropylene for compound dilution in DMSO • CHO Tie2/DHFR (transfected cells) • PBS−; PBS++, DMSO • MEM alpha Medium with Glutamax-I without Ribonucleosides and Deoxyribonucleosides (Gibco #32561-029) with 10% FCS after dialysis! and 1% PenStrep • Lysis buffer: 1 Tablet “Complete” protease inhibitor • 1 cap Vanadate (1 mL>40 mg/mL; working solution 2 mM) • ad 50 mL with Duschl-Puffer • pH 7.6 • Anti-Tie2-antibody 1:425 in Coating Buffer pH 9.6 • Stock solution: 1.275 mg/mL>working: 3 μg/mL • PBST: 2 bottles PBS (10×)+10 ml Tween, fill up with VE-water • RotiBlock 1:10 in VE-water • Anti-Phosphotyrosine HRP-Conjugated 1:10000 in 3% TopBlock • 3% TopBlock in PBST • BM Chemiluminescence ELISA Substrate (POD) • solution B 1:100 solution A • SF9 cell culture medium • Ang2-Fc in SF9 cell culture medium Cell Experiment: • Dispense 5×10^4 cells/well/98 μL in 96 well tissue culture plate • Incubate at 37° C./5% CO2 • After 24 h add compounds according to desired concentrations • Add also to control and stimulated values without compounds 2 μL DMSO • And mix for a few min at room temperature • Add 100 μL Ang2-Fc to all wells except control, which receives insect medium • Incubate 20 min at 37° C. • Wash 3× with PBS++ • Add 100 μl Lysis buffer/well and shake a couple of min at room temperature • Store lysates at […] before utilizing for the ELISA Performance of Sandwich-ELISA • Coat 96 well FluoroNunc Plate MaxiSorp Surface C with anti-Tie2 mAb • 1:425 in Coating buffer pH 9.6; 100 μL/well overnight at 4° C. • Wash 2× with PBST • Block plates with 250 μL/well RotiBlock 1:10 in VE-water • Incubate for 2 h at room temperature or overnight at 4° C. shaking • Wash 2× in PBST • Add thawed lysates to wells and incubate overnight shaking at 4° C. • Wash 2× with PBST • Add 100 μL/well anti-Phosphotyrosine HRP-Conjugated 1:10000 in 3% • TopBlock (3% TopBlock in PBST) and incubate overnight under shaking • Wash 6× with PBST • Add 100 μL/well BM Chemiluminescence ELISA Substrate (POD) • solutions 1 und 2 (1:100) • Determine luminescence with the LumiCount. Assay 2: Tie-2-Kinase HTRF-Assay Without Kinase Preactivation
Target sequence in this assay (Q02763 23-1124, species assumed): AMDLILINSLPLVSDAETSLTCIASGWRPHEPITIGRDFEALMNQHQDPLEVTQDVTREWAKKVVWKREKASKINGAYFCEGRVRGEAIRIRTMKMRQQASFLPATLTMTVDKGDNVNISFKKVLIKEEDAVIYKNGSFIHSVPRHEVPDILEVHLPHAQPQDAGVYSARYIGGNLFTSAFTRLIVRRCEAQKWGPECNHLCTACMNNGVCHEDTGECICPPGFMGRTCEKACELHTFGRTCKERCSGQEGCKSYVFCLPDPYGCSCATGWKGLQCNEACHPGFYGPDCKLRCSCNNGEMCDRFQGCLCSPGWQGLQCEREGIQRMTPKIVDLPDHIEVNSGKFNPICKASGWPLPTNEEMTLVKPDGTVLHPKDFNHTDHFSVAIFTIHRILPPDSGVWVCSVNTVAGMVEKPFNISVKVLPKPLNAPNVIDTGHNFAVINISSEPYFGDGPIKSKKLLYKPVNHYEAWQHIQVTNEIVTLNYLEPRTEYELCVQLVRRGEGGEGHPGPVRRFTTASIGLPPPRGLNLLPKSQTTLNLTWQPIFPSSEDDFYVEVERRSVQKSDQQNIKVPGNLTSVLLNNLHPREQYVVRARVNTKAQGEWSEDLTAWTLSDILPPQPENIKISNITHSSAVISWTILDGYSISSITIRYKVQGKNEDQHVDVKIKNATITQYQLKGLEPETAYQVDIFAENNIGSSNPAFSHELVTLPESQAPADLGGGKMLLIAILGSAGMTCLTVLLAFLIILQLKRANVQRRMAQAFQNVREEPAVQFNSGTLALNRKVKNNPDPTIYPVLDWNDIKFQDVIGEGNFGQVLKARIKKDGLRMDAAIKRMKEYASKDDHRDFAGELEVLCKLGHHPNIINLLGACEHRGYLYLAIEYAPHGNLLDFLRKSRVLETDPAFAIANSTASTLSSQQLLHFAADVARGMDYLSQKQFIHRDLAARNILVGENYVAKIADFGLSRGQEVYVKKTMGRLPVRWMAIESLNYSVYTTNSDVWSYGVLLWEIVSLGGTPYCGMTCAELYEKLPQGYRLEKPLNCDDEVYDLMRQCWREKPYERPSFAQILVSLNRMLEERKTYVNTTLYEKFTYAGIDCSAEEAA
(In general: An ELISA detects its analyte on a solid surface through an enzyme-linked reagent.)

As to `O=C(Nc1ccc(-c2cnc3nc2NCCCNS(=O)(=O)c2cccc(c2)N3)cc1)C1(c2ccc(C(F)(F)F)cc2)CC1` [Example 11, 1-(4-Trifluoromethyl-phenyl)-cyclopropane-carboxylic acid [4-(13,13-dioxo-13λ^6-thia-2,4,8,12,19-pentaaza-tricyclo[12.3.1.1^3,7]nonadeca-1(18),3(19),4,6,14,16-hexaen-6-yl)-phenyl]-amide], the IC50 at Tie2 [1] and on Tie2 [2] was below 100 nM each time.
